Results on five compounds are retold here after patent US4661592A, “4H-pyrimido[2,1-a]isoquinolin-4-one derivatives” (G. D. Searle & Co., priority 1984, dated 1987).

This assay in a line: Food intake test in food-deprived rats (anorectic activity). It counts as in vivo, Male Sprague-Dawley derived rats. The settings on record: rat, 32.0 mg/kg i.g., 24 h food-deprived, food given 30 min after dosing; for Food Intake, % of control, 1 Hr.: 1 hour intake; for Food Intake, % of control, 2 Hr.: 2 hour intake; for Food Intake, % of control, 6 Hr.: 6 hour intake. How it is done:
Male Sprague-Dawley derived rats, Charles River Breeders (Portage, MI), weighing between 200-400 grams at the time of testing, were employed in the food intake studies and water intake studies. The rats were housed individually and kept on a 12 hour light-dark-light cycle. The room temperature ranged between 23°-25° C. The rats employed in food intake testing were food deprived on the day preceding testing and were divided into experimental groups that were matched on the basis of average daily food intake and body weight. At approximately 24 hour post-deprivation, the rats were administered a test sample containing as the active ingredient a compound of the present invention. All test samples employed herein were prepared and homogenized in a vehicle of normal saline (to which a few drops of PG/Tween 80 was added). The test samples were administered at an injection volume of 2 ml/kg, unless otherwise stated. Thirty minutes following administration of the test samples, pre-weighed food jars containing ground meal were placed in the rats' cages. (Prior to testing the rats were given ground meal for a minimum of 3 days to familiarize the rats with this food.) After 1, 2 and 6 hours of food access, the jars were removed, weighed and returned to the rats' cages providing a 1, 2 and 6 hours intake measurement. […] The results obtained are represented in Table I as a percent of control values. A student t test was used for making statistical comparisons, and the p-values are based upon two-tailed comparisons. The compound employed as the active ingredient on the test sample is indicated by the example number which describes its preparation.

Consider `O=c1c(CO)cnc2c3ccccc3ccn12` [Example 1, 3-(hydroxymethyl)-4H-pyrimido [2,1-a]isoquinolin-4-one], for which the “Food Intake, % of control, 1 Hr.” value is listed as 61.8 % of control; the “Food Intake, % of control, 2 Hr.” value is recorded as 77.4 % of control; the “Food Intake, % of control, 6 Hr.” value is reported as 90.4 % of control.
`CC(=O)OCc1cnc2c3ccccc3ccn2c1=O` [Example 2, 3-(hydroxymethyl)-4H-pyrimido[2,1-a]isoquinolin-4-one acetate]: the “Food Intake, % of control, 1 Hr.” value is given as 51.4 % of control; the “Food Intake, % of control, 2 Hr.” value is on record as 67.1 % of control; the “Food Intake, % of control, 6 Hr.” value is reported as 89.8 % of control.
On to `Cl.Cl.NCc1cnc2c3ccccc3ccn2c1=O` [Example 3, 3-(aminomethyl)-4H-pyrimido[2,1-a]isoquinolin-4-one, dihydrochloride], for which the “Food Intake, % of control, 1 Hr.” value was 51.3 % of control; the “Food Intake, % of control, 2 Hr.” value is 71.4 % of control; the “Food Intake, % of control, 6 Hr.” value is reported as 92.3 % of control.
The like results for `CCN(CC)CCOCc1cnc2c3ccccc3ccn2c1=O.Cl.Cl` [Example 4, 3-[[2-(diethylamino)ethoxy]methyl]-4H-pyrimido[2,1-a]isoquinolin-4-one dihydrochloride] were, in that order, 70.8 % of control, 80.8 % of control and 90.9 % of control.
For `CN(C)CCNC(=O)c1cnc2c3ccccc3ccn2c1=O` [Example 5] the same measures were 82.4 % of control, 87.5 % of control and 88.3 % of control.
